In brackets after ≈: the same amount, converted by molar mass. Read-outs that look alike come from different tables or passages of the source.
Columns and labels:
A. baumannii ATCC 19606 = type: cell-based, Acinetobacter baumannii; details: ATCC 19606
Experimental: (§1) Both antibacterial and antifungal MIC assays were performed by a broth microdilution plate based method as per CLSI guidelines for antimicrobial susceptibility testing.[53],[54] […] Full assay details are included in the Supporting Information with a full list of strains tested in Table S1.
(§2) Antibacterial assay (Minimum Inhibitory Concentration [MIC]).
(§3) MIC assay was performed by a broth microdilution plate based method as per CLSI guidelines for antimicrobial susceptibility testing of aerobic bacteria.1 Compounds were prepared at 1.28 mg/mL solution in water. The tested strains, Table S1, were cultured in Luria broth (LB) (In Vitro Technologies, USB75852), at 37 °C overnight. A sample of culture was then diluted 40Pfold in fresh Muller Hinton broth (MHB) (Bacto laboratories, 211443) and incubated at 37 °C for 1.5P2 h. The compounds were serially diluted twoPfold across the wells, with compound concentrations ranging from 0.015 µg/mL to 512 µg/mL, plated in duplicate. The resultant midPlog phase cultures were diluted to the final concentration of 1×10^6 CFU/mL, then 50 µL was added to each well of the compoundP containing 96Pwell plates (Corning 3641, NonPbinding Surface [NBS]), giving a final compound concentration range of 0.008 µg/mL to 256 µg/mL and 5x10^5 CFU/mL. All the plates were covered and incubated at 37 °C for 18 h. MICs were determined visually, being defined as the lowest concentration showing no visible growth. Resazurin was added at 0.001% final concentration to each well and incubated for 2 h before MICs were rePread for confirmation using the colour change from blue to pink to indicate wells containing viable cells. The resazurin assay was added in some wells where some form of precipitate was present in otherwise clear wells, making it difficult to ascertain which wells had visible […]
(§4) Antifungal assay (Minimum Inhibitory Concentration [MIC]). MIC assay was performed by a broth microdilution plate based method as per CLSI guidelines for antimicrobial susceptibility testing.2 Fungi strains, Table S1, were cultured for 3 days on Yeast ExtractPPeptone Dextrose (YPD) (SigmaPAldrich, Y1500) agar at 30 °C. A yeast suspension of 1x10^6 to 5x10^6 CFU/mL was prepared from five colonies. These stock suspensions were diluted with Yeast Nitrogen Base (YNB) (Becton Dickinson, 233520) broth to a final concentration of 2.5 ×10^3 CFU/mL. All samples, compounds and standards were plated in 96Pwell plates (Corning 3641, NonPbinding Surface [NBS]), by adding 10 µL of 1.28 mg/mL stock solution to each well and 90 µL of media. Then, the samples were serial diluted (1:2) in 12 concentrations across the plate. The standard antifungal ranged from 256

[1] = Cytotoxicity, Alamar Blue (resazurin) assay; type: cell-based, human; details: human
Experimental: Cytotoxicity to HEK293 and HepG2 cells was determined using the Alamar Blue (resazurin) assay,[55],[56] with 24 h of incubation and either 1 or 10% serum concentration. Full assay details are included in the Supporting Information.
Cytotoxicity. Cytotoxicity to HEK293 and HepG2 cells was determined using the Alamar Blue (resazurin) assay,3, 4 For the assays supplemented with 1 % FBS as final concentration the cells were seeded one day prior to the assay (3,000 per 20 µL for HEK293 and 4,000 per 20 µL for HepG2) with DMEM + 2 % FBS. The compounds were prepared as described below, using DMEM with no FBS instead to give the final FBS concentration of 1 %.
The highest concentration the compounds were tested was 300 µg/mL. A dilution series of 1:3 fold steps in DMEM (GIBCOPInvitrogen, cat. no. 11995P073) + 10 % FBS was created (concentration range of 600 µg/mL – 0.28 µg/mL), and 20 µL of these 2x concentrated compound dilutions were added in duplicates to wells of a black wall, clear bottom 384Pwells cell culture plate. For the assays with 1 % FBS the compounds in 0 % FBS were added to the existing cell plates in 2 % FBS. 200 µM Tamoxifen (Sigma T5648) served as negative control and in addition a serial dilution of tamoxifen, starting at 200 µM (74 µg/mL), was included as a dose response control (1 in 2 dilution series for tamoxifen). For the assay with 10 % FBS, HepG2 cells were seeded at 5000 cells per well, in a volume of 20 µL in DMEM medium + 10 % of FBS and added to the 20 µL of compound solution (total volume of 40 µL), resulting in a final compound concentration range of 300 µg/mL to 0.14 µg/mL.
Cells were incubated together with the compounds for 20 h at 37 °C, 5 % CO2.
After the incubation, 5 µL of 100 µM (25 µg/mL) resazurin dissolved in PBS (final concentration was approximately 11 µM) was added to each well. The plates were then incubated for 3 h at 37 °C, 5 % CO2. The fluorescence intensity was read using the TECAN Infinite M1000 PRO with excitation/emission 560/590. The data was analysed by Graph Pad Prism software. Results are presented as the average percentage of control ± SD for each set of duplicate wells using the following equation: Cell survival % = (FISAMPLE – FINegative/FIUNTREATED –FINegative)*100. (100 µg/mL tamoxifen was set as 0 % survival, media

[2] = hemolysis (%) at 300 μg/mL, human erythrocytes, 3 h, relative to 100% hemolysis by 1% Triton X-100
[3] = system: E. coli ATCC 25922 (control strain); type: cell-based, Escherichia coli; details: ATCC 25922
Experimental: as §1, §2, §3, §4

[4] = system: E. coli ATCC 700926 (K12); type: cell-based, Escherichia coli; details: ATCC 700926
Experimental: as §1, §2, §3, §4

[5] = system: E. coli ATCC 25922 cytoplasmic membrane; details: not told
[6] = Plasma protein binding, ultrafiltration; type: in vitro ADME; details: 100% human plasma, read-out: PPB (%) (converted)
Experimental: Plasma protein binding was performed using an ultrafiltration method.[58]
Plasma protein binding assay
Plasma protein binding was performed using an Ultrafiltration method.13 Fresh frozen human plasma was pooled from O Negative (Product number 1274512) blood from the R & D division of the Australian Red Cross Blood Services (Brisbane). Stock solutions (20 mg/mL) of the test compounds were prepared in H2O. Test compounds (40 µg/mL) were incubated in 100 % human plasma at 37 °C for 30 min (1 mL volume). For unfiltered samples, an aliquot (50 µL) was removed, diluted with PBS (50 µL) and quenched with icePcold precipitating solution comprising 0.5 µM carbutamide MS internal standard in acetonitrile : methanol : formic acid (1: 1 : 0.001). Samples were incubated at 4 °C for 30 min then centrifuged at 14000 × g for 8 min, with the clear supernatant transferred to a vial for LC/MS/MS analysis.
For filtered samples, the plasma sample (250 µL) was filtered using Amicon UltraP0.5 Centrifugal Filter Devices 30K NMWL at 14000 × g for 7 min and then an aliquot (50 µL) was processed as described for unfiltered samples. The fraction of unbound compound was calculated by determining the concentration of the filtered sample and the concentration of unfiltered sample. All samples were performed in triplicate with sulfamethoxazole as a […]

K. pneumoniae ATCC 13883 = type: cell-based, Klebsiella pneumoniae; details: ATCC 13883
Experimental: as §1, §2, §3, §4

P. aeruginosa ATCC 27853 = type: cell-based, Pseudomonas aeruginosa; details: ATCC 27853
Experimental: as §1, §2, §3, §4

[7] = system: E. coli ATCC 25922 cytoplasmic membrane; assay: Inner membrane permeability measured by SYTOX green fluorescence emission; details: SYTOX green, E. coli ATCC 25922, 1 h
human erythrocytes = details: red cells of human, 3 h
B. subtilis ATCC 6051 = assay: microbe, parasite or virus in culture; type: cell-based, Bacillus subtilis; details: ATCC 6051
Experimental: as §1, §2, §3, §4

Structure (SMILES): CC(C)C[C@H](NC(=O)[C@H](CCCNC(=N)N)NC(=O)CNC(=O)CNC(=O)[C@@H](N)CCCNC(=N)N)C(=O)N[C@H]1CSSC[C@@H](C(=O)N[C@H](C(=O)NCC(=O)N[C@@H](CCCNC(=N)N)C(N)=O)C(C)C)NC(=O)[C@H](C(C)C)NC(=O)[C@@H]2CSSC[C@H](NC(=O)[C@H](Cc3ccc(O)cc3)NC1=O)C(=O)N[C@@H](CCCNC(=N)N)C(=O)N[C@@H](CCCNC(=N)N)C(=O)N[C@@H](CCCNC(=N)N)C(=O)N[C@@H](Cc1ccccc1)C(=O)N2 [protegrin-1]
- MIC (A. baumannii ATCC 19606): 0.25 µg/mL (≈ 0.116 µM)
- CC50 at 24 h ([1]; HEK293 cells, HEK293, 1% FBS, read-out: cytotoxicity HEK293 1% FBS): 19.6 ± 1.2 µg/mL (≈ 9.09 µM)
- CC50 at 24 h ([1]; HEK293 cells, HEK293, 10% FBS, read-out: cytotoxicity HEK293 10% FBS): 93.9 ± 1.1 µg/mL (≈ 43.6 µM)
- CC50 at 24 h ([1]; HepG2 cells, HepG2, 1% FBS, read-out: cytotoxicity HepG2 1% FBS): 31.4 ± 2 µg/mL (≈ 14.6 µM)
- CC50 at 24 h ([1]; HepG2 cells, HepG2, 10% FBS, read-out: cytotoxicity HepG2 10% FBS): 96.1 ± 1.1 µg/mL (≈ 44.6 µM)
- hemolysis [2]: 65%
- MIC [3]: 2 µg/mL (≈ 0.928 µM)
- MIC [4]: 0.25 µg/mL (≈ 0.116 µM)
- permeabilization concentration relative to MIC [5]: lower concentration than their MIC
- fraction unbound [6]: 0.11
- MIC (K. pneumoniae ATCC 13883): 0.5 µg/mL (≈ 0.232 µM)
- MIC (P. aeruginosa ATCC 27853): 4 µg/mL (≈ 1.86 µM)
- permeabilisation of the E. coli cytoplasmic membrane at lethal concentrations [7]: permeabilise
- hemolysis (%) at 300 μg/mL (human erythrocytes): 64.8 ± 3.5%
- MIC (B. subtilis ATCC 6051): 0.03 µg/mL (≈ 0.0139 µM)
